Patent US8183005B1, “Pharmaceutical agents for treating HCV infections” (priority 2004, dated 2012)

Experiments:
Format in all cases: cell-based
HCV replicon = HCV replicon assay (luciferase); settings: for HCV replication (replicon activity) versus viable cell count: HCV replicon cells, 72 hours; for IC50: firefly luciferase HCV replicon cells (Huh-3-1), cultured three days with compound; for HCV replicon activity compared with control siRNA-treated cells: Huh-3-1 cells, siRNA 35 nM, four days
Protocol: (§1) Firefly luciferase HCV replicon cells (Huh-3-1) suspended in Dulbecco's MEM (Gibco Cat. No. 10569) containing 5% fetal bovine serum (Hyclone Cat. No. SH30071.03) were plated onto a 96-well plate at 5000 cells/well, and cultured overnight under 5% CO2 at 37° C. Approximately 20 hours later, fumonisin B1 was added to a final concentration of 1.37 μM to 1000 μM by carrying out a sequential three-fold dilution, and the cells were then cultured for three more days. The assay was carried out by preparing two types of assay plates: one an opaque white plate and the other a transparent plate. After culturing, the white plate was subjected to the Steady-Glo Luciferase Assay System (Promega Cat. No. E2520). More specifically, 100 μL of reagent was added to each well, mixed three to four times using a pipette, and then stood for five minutes before luminescence was measured using 1450 MicroBeta TRILUX (WALLAC). IC50 (50% inhibitory concentration) of a pharmaceutical agent was calculated by subtracting the value obtained without adding the cells as the background value from all of the values, and then defining the level of inhibition without addition of the pharmaceutical agent as 0%. A Cell Counting Kit-8 (DOJINDO Laboratories, Cat. No. 341-07761) was used for the cytotoxicity assays. 10 μL of reagent was added to each well, mixed three to four times using a pipette, and then stood for approximately 30 minutes; measurements were performed when OD450 nm reached approximately 1.0. IC50 (50% inhibitory concentration) of a pharmaceutical agent was calculated by subtracting the value obtained without adding the cells as the background value from all of the values, and then defining the level of inhibition without addition of the pharmaceutical agent as 0%.
(§2) Based on the results of Example 5, the following method was used to measure the effect on cytotoxicity and HCV replicon activity under conditions in which Huh-3-1 cells show reduced LCB1 expression. More specifically, cells were plated onto a 96-well plate at 3500 cells per well, and cultured overnight under 5% CO2 at 37° C. 1.75 μL of 2 μM siRNA was added to 23.3 μL of ECR buffer (buffer included in the RNAiFect Kit), this was stirred vigorously, and then 0.31 μL of RNAiFect transfection reagent was added. This was stirred gently at room temperature and then allowed to stand for ten minutes. siRNA was added to a final concentration of 35 nM, and this was cultured for four days. The effect on cytotoxicity was determined by adding 10 μL of Cell Counting Kit-8 (DOJINDO Laboratories Cat. No. 341-07761) to the medium, mixing three to four times using a pipette, and then allowing this to stand for one hour at 37° C. Absorbance was then measured at 450 nm using a microplate reader Emax (Molecular Devices). After incubation, the medium was exchanged for fresh medium, and the plate was subjected to the Steady-Glo Luciferase Assay System (Promega Cat. No. E2520). 100 μL of reagent was added to each well, mixed three to four times using a pipette, and then allowed to stand for five minutes. Luminescence was then measured using 1450 MicroBeta TRILUX (WALLAC) to determine the HCV replicon activity. IC50 (50% inhibitory concentration) of a pharmaceutical agent was calculated by subtracting the value obtained without adding the cells as the background value from all of the values, and then defining the level of inhibition without addition of the pharmaceutical agent as 0%.
First, to quantify the copy number of HCV-RNA, an RNA was constructed such that a firefly-derived luciferase gene was introduced into the HCV-RNA as a reporter gene. According to the method of Krieger et al. (J. Virol., 75: 4614), the luciferase gene was introduced immediately after the Internal Ribosome Entry Site (IRES) of the HCV gene, so that the gene was fused with the neomycin-resistance gene. […]

in vitro = settings: human, Huh-3-1 replicon cells, three days, Cell Counting Kit-8; read-out: Cytotoxicity CC50
Protocol: as §1, §2
(§3) A Cell Counting Kit-8 (DOJINDO Laboratories, Cat. No. 341-07761) was used for the cytotoxicity assays. More specifically, 10 μL of Cell Counting Kit-8 was added to the transparent plate, and this was warmed at 37° C. for 30 to 60 minutes. Using a 96-well plate reader, absorbance was measured at a wavelength of 450 nm with a reference wavelength of 630 nm. […]

Huh-3-1 cells = assay: in vitro; settings: for CC50: Huh-3-1 replicon cells, three days, Cell Counting Kit-8, read-out: Cytotoxicity CC50; for effect of siRNA treatment on cytotoxicity: Huh-3-1 cells, siRNA 35 nM, four days
Protocol: as §1, §2, §3

[1] = tested on: LCB1 (a subunit of the SPT heterodimer); assay: Inhibition of LCB1 protein expression by siRNAs, Western blotting; settings: Huh-3-1 cells, siRNA 35 nM, four days
Protocol: 1.2×10^5 Huh-3-1 cells were plated onto a 6-well plate, and the cells were cultured overnight under 5% at 37° C. 2.3 μL of 20 μM siRNA was added to 100 μL of ECR buffer (a buffer included in the RNAiFect Kit), this was stirred vigorously, and after the addition of 4 μL of RNAiFect transfection reagent (Qiagen Cat. No. 301605) this was stirred gently at room temperature and allowed to stand for ten minutes. siRNA was added to a final concentration of 35 nM, and this was cultured for four days.
The cells were suspended in a cell lysis buffer (50 mM Tris-HCl (pH 7.5), 0.5% Triton, 3 mM EDTA, 150 mM NaCl, 12 mM glycerophosphate, 50 mM NaF, 1 mM Na3VO4, 0.5 mM PMSF, 0.5 mM aporotinin), and were allowed to stand on ice for ten minutes. This was centrifuged at 15,000×g for ten minutes, and the supernatant was collected. After quantifying the protein, the amount of protein in each sample was adjusted to 10 μg, and this was added to ¼ volume of 5×SDS sample buffer (125 mM Tris-HCl (pH 6.5), 25% Glycerol, 5% SDS, 0.25% BPB, 5% 2-Mercaptoethanol) and treated for five minutes at 98° C. […] The membranes were washed with 0.1% Tween 20/PBS, and then reacted for one minute with ECL, and the resulting signals were detected by autoradiography.

HCV RNA replication = assay: Northern blot analysis of HCV RNA replication in Huh-3-1 replicon cells; settings: Hepatitis C virus, 72 h, read-out: concentration reducing replicon RNA by 50%
Protocol: Cells were collected 72 hours later, total RNAs were extracted, and this was subjected to Northern blot analysis using a neomycin resistance gene as a probe according to the NorthernMax Kit method, available from Ambion.
The probes were labeled with biotin using a BrightStar Psoralen-Biotin Kit (Ambion #9860G3).
1 μg of the total RNAs were electrophoresed on a 1% agarose gel, and then the RNAs were stained with ethidium bromide. The resulting gel was photographed and decolorized, then NorthernMax transfer buffer was used for two hours to transfer the RNAs to the transfer membrane. While the membrane was still wet, the RNAs were fixed to the transfer membrane using a UV crosslinker. The membrane was pretreated in ULTRAhyb for 30 minutes at 42° C. while being rotated in a Hybridization oven. This pretreatment solution was then discarded, and the membrane was treated by adding the biotinylated neomycin resistance gene and 10 mL of ULTRAhyb solution, and then shaking overnight at 42° C.
The ULTRAhyb solution was then discarded, and 15 mL of High Stringency Buffer pre-warmed to 42° C. was added to the membrane, and this was shaken for 30 minutes at 42° C. This same operation was then repeated once. The transfer membrane was washed using enough wash buffer to soak the membrane. The transfer membrane was shaken in a blocking buffer for 30 minutes, then this solution was discarded. […]

HCV protein (NS3) = assay: Western blot analysis of HCV protein synthesis in Huh-3-1 replicon cells; settings: Hepatitis C virus, 72 h, read-out: concentration reducing expression of HCV proteins by 50%
Protocol: After 72 hours, the culture medium was discarded, phosphate buffered saline (PBS) was added, and the cells were dislodged by pipetting and then collected by centrifugation. A lysis solution for phosphate (50 mM Tris-HCl (pH 7.5), 0.5% Triton, 3 mM EDTA, 150 mM NaCl, 12 mM glycerophosphate, 50 mM NaF, 1 mM Na3VO4, 0.5 mM PMSF, and 0.5 mM aporotinin) was added to the cells, the cells were disrupted by pipetting, and the supernatant was collected by high-speed centrifugation. A protein assay was carried out using Dye Reagent (Nacalai Tesque #074-27) (Bovine Gamma Globulin, Standard solution, BIO-RAD #500-0005). […] Rainbow molecular weight markers (Amersham Bioscience #RPN756) were used as molecular weight size markers. […] Western analysis was performed using a rabbit antibody against NS3, derived from an HCV protein. Anti-actin rabbit antibody was used as an internal standard.

Compound: CCCC[C@@H](C)[C@@H](OC(=O)C[C@@H](CC(=O)O)C(=O)O)[C@H](C[C@@H](C)C[C@H](O)CCCC[C@@H](O)C[C@H](O)[C@H](C)N)OC(=O)C[C@@H](CC(=O)O)C(=O)O [fumonisin B1, reference compound]
- HCV replication (replicon activity) versus viable cell count (HCV replicon): suppressing the HCV replication at non-cytotoxic concentrations

Compound: CCCCCCCC(=O)CCCCCC/C=C/[C@H](C(=O)N[C@@H](Cc1ccc(OCC=C(C)C)cc1)C(=O)OC)[C@@](O)(CC(=O)OC)C(=O)O [(42)]
- CC50 (in vitro): > 1000 nM

Compound: CCCCCCCC(=O)CCCCCC/C=C/[C@H](C(=O)N[C@@H](Cc1ccc(C#N)cc1)C(=O)O)[C@@](O)(CC(=O)O)C(=O)O [(19)]
- IC50 (HCV replicon; Hepatitis C virus, 72 h): 12 nM
- CC50 (in vitro): > 1000 nM

Compound: CCCCCCCC(=O)CCCCCC/C=C/[C@H](C(=O)N[C@@H](Cc1ccc(OCC=C(C)C)cc1)C(N)=O)[C@@](O)(CC(N)=O)C(N)=O [Compound (50)]
- CC50 (in vitro): > 5000 nM

Compound: CCCCCCCC(=O)CCCCCC/C=C/[C@H](C(=O)N[C@@H](Cc1ccc(C(F)(F)F)cc1)C(=O)O)[C@@](O)(CC(=O)O)C(=O)O [(18)]
- IC50 (HCV replicon; Hepatitis C virus, 72 h): 68 nM
- CC50 (in vitro): > 1000 nM

Compound: CCCCCCCC(=O)CCCCCC/C=C/[C@H](C(=O)N[C@@H](Cc1ccc([N+](=O)[O-])cc1)C(=O)O)[C@@](O)(CC(=O)O)C(=O)O [(21)]
- IC50 (HCV replicon; Hepatitis C virus, 72 h): 80 nM
- CC50 (in vitro): > 1000 nM

Compound: CCCCCCCC(=O)CCCCCC/C=C/[C@H](C(=O)N[C@@H](Cc1ccc(OCC=C(C)C)cc1)C(=O)O)[C@@](O)(CC(=O)O)C(=O)O [Compound (51)]
- IC50 (HCV replicon): 72 nM
- CC50 (Huh-3-1 cells): > 5000 nM

Compound: CCCCCCCCCCCCCC/C=C/[C@H](C(=O)N[C@@H](Cc1ccc(OCC=C(C)C)cc1)C(=O)O)[C@@](O)(CC(=O)O)C(=O)O [Compound (52)]
- IC50 (HCV replicon; Hepatitis C virus, 72 h): 100 nM
- CC50 (in vitro): > 50000 nM

Compound: CCCCCCCC(=O)CCCCCC/C=C/[C@H](C(=O)N[C@@H](Cc1c[nH]c2ccccc12)C(=O)O)[C@@](O)(CC(=O)O)C(=O)O [(44)]
- CC50 (in vitro): > 1000 nM

Compound: CCCCCCCC(O)CCCCCC/C=C/[C@H](C(=O)N[C@@H](Cc1ccc(OCC=C(C)C)cc1)C(=O)O)[C@@](O)(CC(=O)O)C(=O)O (stereo partly shown) [Compound (47)]
- CC50 (in vitro): > 5000 nM

Compound: CCCCCCC(O)C(=O)CCCCCC/C=C/[C@H](C(=O)N[C@@H](Cc1ccc(OCC=C(C)C)cc1)C(=O)O)[C@@](O)(CC(=O)O)C(=O)O (stereo partly shown) [(45)]
- CC50 (in vitro): > 1000 nM

Compound: si633: siRNA targeting LCB1, a subunit of the SPT heterodimer; SEQ ID NO: 2 (UGACAUGGCUGACCUCGAGTT; chemistry not given here)
- HCV replicon activity compared with control siRNA-treated cells (HCV replicon): significantly inhibited
- effect of siRNA treatment on cytotoxicity (Huh-3-1 cells): almost no effect
- LCB1 protein expression compared with control siRNA [1]: decrease the level of LCB1 protein expression

Compound: CCCCCCCCCCCC(=O)N[C@@H](CO)C[C@H](O)c1ccccc1 [HPA-12, reference compound]
- HCV replication (replicon activity) versus viable cell count (HCV replicon): suppressing the HCV replication at non-cytotoxic concentrations

Compound: CCCCCCCC(=O)CCCCCC/C=C/[C@H](C(=O)N[C@@H](Cc1ccc(O)cc1)C(=O)O)[C@@](O)(CC(=O)O)C(=O)O [Compound (48)]
- CC50 (in vitro): > 5000 nM

Compound: CC(C)CCOc1ccc(C[C@H](NC(=O)[C@@H](/C=C/CCCCCCC(=O)CCCCC2CCCCC2)[C@](O)(CC(=O)O)C(=O)O)C(=O)O)cc1 [(38)]
- IC50 (HCV replicon): 24 nM
- CC50 (Huh-3-1 cells): > 1000 nM

Compound: CCCCCCCC(CCCCCC/C=C/[C@H](C(=O)N[C@@H](Cc1ccc(OCC=C(C)C)cc1)C(=O)O)[C@@](O)(CC(=O)O)C(=O)O)=NOC [(54)]
- CC50 (in vitro): > 50000 nM

Compound: CCCCCCCC(=O)CCCCCC/C=C/[C@H](C(=O)N[C@@H](Cc1ccc(OCCCC)cc1)C(=O)O)[C@@](O)(CC(=O)O)C(=O)O [(26)]
- CC50 (in vitro): > 1000 nM

Compound: CCCCCCCC(=O)CCCCCC/C=C/[C@H](C(=O)N[C@@H](Cc1ccc(OCCC(C)C)cc1)C(=O)O)[C@@](O)(CC(=O)O)C(=O)O [Compound (46)]
- CC50 (in vitro): > 5000 nM

Compound: si246: siRNA targeting LCB1, a subunit of the SPT heterodimer; SEQ ID NO: 1 (CAUCGUUUCAGGCCCUCCATT; chemistry not given here)
- HCV replicon activity compared with control siRNA-treated cells (HCV replicon): strong inhibitory effect
- effect of siRNA treatment on cytotoxicity (Huh-3-1 cells): almost no effect
- LCB1 protein expression compared with control siRNA [1]: Particularly strong inhibition of expression

Compound: CCCCCCCC(=O)CCCCCC/C=C/[C@H](C(=O)N[C@@H](Cc1ccc(Cl)cc1)C(=O)O)[C@@](O)(CC(=O)O)C(=O)O [(20)]
- IC50 (HCV replicon; Hepatitis C virus, 72 h): 55 nM
- CC50 (in vitro): > 1000 nM

Compound: CCCCCCCC(=O)CCCCCCCC[C@H](C(=O)N[C@@H](Cc1ccc(O)cc1)C(=O)O)[C@@](O)(CC(=O)O)C(=O)O [Compound (49)]
- CC50 (in vitro): > 50000 nM

Compound: CCCCCCCC(=O)CCCCCC/C=C/[C@H](C(=O)N[C@@H](Cc1ccc(OCC=C(C)C)cc1)C(=O)O)[C@@](O)(CC(=O)OC)C(=O)O [(41)]
- CC50 (in vitro): > 1000 nM

Compound: CCCCCCC(O)C(=O)CCCCCC/C=C/[C@H](C(=O)N[C@@H](Cc1ccc(O)cc1)C(=O)O)[C@@](O)(CC(=O)O)C(=O)O (stereo partly shown) [(43)]
- CC50 (in vitro): > 1000 nM

Compound: CCCCCCC(=O)CCCCCC/C=C/C[C@@H](O)[C@H](O)[C@@](N)(CO)C(=O)O [myriocin]
- HCV replication (replicon activity) versus viable cell count (HCV replicon): suppressing the HCV replication at non-cytotoxic concentrations
- IC50 (HCV RNA replication): 1 to 10 nM
- IC50 (HCV protein (NS3)): 1 to 10 nM
